System: spirally cut strips of rat aorta
Test: Inhibition of calcium-induced contraction of isolated rat aorta strips (concentration required to reduce the response by 50%)
Assay type: cell-based
Details: 0.75 h, in vitro, 45 millimolar potassium, contraction by calcium chloride, final calcium 2 millimolar, retest after 45 minutes with compound present, read-out: IC50 (molar concentration of the compounds required to reduce the response by 50%)
Protocol: The ability of the compounds to inhibit the movement of calcium into the cell is shown by their effectiveness in reducing the response of isolated […] to an increase in calcium ion concentration in vitro. The test is performed by mounting spirally cut strips of rat aorta with one end fixed and the other attached to a force tranducer. The tissue is immersed in a bath of physiological saline solution containing potassium ions at a concentration of 45 millimolar and no calcium. Calcium chloride is added to the bath with a pipette to give a final calcium ion concentration of 2 millimolar. The change in tension caused by the resulting contraction of the tissue is noted. The bath is drained and replaced with fresh saline solution and, after 45 minutes, the test is repeated with the particular compound under test present in the saline solution. The concentration of compound required to reduce the response by 50% is recorded.

Structure (SMILES) | IC50
CCOC(=O)C1=C(COCCN2CCN(c3nccs3)CC2)NC(C)=C(C(=O)OC)C1c1ccccc1Cl (stereo not shown) [Example 4] | 15 nM
CCOC(=O)C1=C(COCCN2CCN(C3=NCCC3)CC2)NC(C)=C(C(=O)OC)C1c1ccccc1Cl (stereo not shown) [Example 1, 2-[2-(4-(1-Pyrrolin-2-yl)-piperazin-1-yl)ethoxymethyl]-4-(2-chlorophenyl)-3-ethoxycarbonyl-5-methoxycarbonyl-6-methyl-1,4-dihydropyridine] | 141 nM
CCOC(=O)C1=C(COCCN2CCN(C3=NCCN3)CC2)NC(C)=C(C(=O)OC)C1c1ccccc1Cl (stereo not shown) [Example 2] | 100 nM
CCOC(=O)C1=C(COCCN2CCN(c3nccc(=O)[nH]3)CC2)NC(C)=C(C(=O)OC)C1c1ccccc1Cl (stereo not shown) [Example 3] | 36 nM

More lines, now with the values ahead:

IC50 | Structure (SMILES)
26 nM | CCOC(=O)C1=C(COCCN2CCN(c3nc(N)n(C)n3)CC2)NC(C)=C(C(=O)OC)C1c1ccccc1Cl (stereo not drawn) [Example 6 (least polar isomer), 2-[2-(4-{5-amino-1-methyl-1,2,4-triazol-3-yl}-piperazin-1-yl)ethoxymethyl]-4-(2-chlorophenyl)-3-ethoxycarbonyl-5-methoxycarbonyl-6-methyl-1,4-dihydropyridine]
38 nM | CCOC(=O)C1=C(COCCN2CCN(c3nc(N)n[nH]3)CC2)NC(C)=C(C(=O)OC)C1c1ccccc1Cl (stereo not shown) [Example 5, 2-{2-[4-(5-Amino-1,2,4-triazol-3-yl)piperazine-1-yl]ethoxymethyl}-4-(2-chlorophenyl)-3-ethoxycarbonyl-5-methoxycarbonyl-6-methyl-1,4-dihydropyridine, bis-maleate hemihydrate]
100 nM | CCOC(=O)C1=C(COCCN2CCN(c3nc(N)nn3C)CC2)NC(C)=C(C(=O)OC)C1c1ccccc1Cl (single isomer, unassigned) [Example 6 (more polar isomer), 2-[2-(4-{3-amino-1-methyl-1,2,4-triazol-5-yl}-piperazin-1-yl)ethoxymethyl]-4-(2-chlorophenyl)-3-ethoxycarbonyl-5-methoxycarbonyl-6-methyl-1,4-dihydropyridine hemihydrate]

Reference: patent US4547502A, “Dihydropyridines and their use in treating cardiac conditions and hypertension” (Pfizer Inc., priority 1982, dated 1985)
